Source: patent publication US12097202B2 (Kadmon Corporation, LLC, priority 2022, dated 2024)

Assays:
BCRP = target: T1, BCRP (Homo sapiens, UniProt Q9UNQ0); assay: In vitro transporter study, BCRP; type: in vitro ADME; conditions: at clinically relevant concentrations
T1 sequence (Q9UNQ0 1-655): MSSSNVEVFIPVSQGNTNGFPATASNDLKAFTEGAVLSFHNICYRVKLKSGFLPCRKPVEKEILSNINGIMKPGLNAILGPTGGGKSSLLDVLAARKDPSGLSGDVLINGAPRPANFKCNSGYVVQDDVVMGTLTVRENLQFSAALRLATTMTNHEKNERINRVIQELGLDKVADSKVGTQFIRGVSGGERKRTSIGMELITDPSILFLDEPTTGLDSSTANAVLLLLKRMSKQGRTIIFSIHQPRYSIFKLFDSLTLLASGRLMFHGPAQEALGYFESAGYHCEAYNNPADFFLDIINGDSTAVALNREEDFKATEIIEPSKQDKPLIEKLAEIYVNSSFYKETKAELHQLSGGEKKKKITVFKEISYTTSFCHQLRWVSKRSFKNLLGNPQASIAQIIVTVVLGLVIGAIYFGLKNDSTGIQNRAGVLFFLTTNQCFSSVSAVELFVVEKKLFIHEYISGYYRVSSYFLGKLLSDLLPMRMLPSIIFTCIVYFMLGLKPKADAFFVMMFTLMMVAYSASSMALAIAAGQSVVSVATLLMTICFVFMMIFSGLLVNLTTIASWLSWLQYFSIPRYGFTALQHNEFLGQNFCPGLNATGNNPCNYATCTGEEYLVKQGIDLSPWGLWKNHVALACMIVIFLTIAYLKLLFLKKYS

rat bone marrow = assay: in vivo rat bone marrow micronucleus assay
[1] = tested on: patients with chronic GVHD; assay: Pooled adverse reactions and laboratory abnormalities, 83 adult chronic GVHD patients on 200 mg once daily (KD025-213 and KD025-208); type: in vivo, human; conditions: for Alanine Aminotransferase Increased / Alkaline Phosphatase Increased / Calcium Decreased / Creatinine Increased / Gamma Glutamyl Transferase Increased / Hemoglobin Decreased / Lymphocytes Decreased / Neutrophil Count Decreased / Phosphate Decreased / Platelets Decreased / Potassium Increased: Grade 0-1 Baseline
From the text: The median duration of treatment was 9.2 months (range 0.5 to 44.7 months).

CC(C)NC(=O)COc1cccc(-c2nc(Nc3ccc4[nH]ncc4c3)c3ccccc3n2)c1 [belumosudil, 2-{3-[4-(1H-indazol-5-ylamino)-2-quinazolinyl]phenoxy}-N-(propan-2-yl) acetamide]
inhibition of BCRP (BCRP): inhibits | genotoxicity, bone marrow micronucleus assay (rat bone marrow): not genotoxic | Alanine Aminotransferase Increased ([1]; Grade 2-4 Max Post): 7% | Alkaline Phosphatase Increased ([1]; Grade 2-4 Max Post): 9% | Calcium Decreased ([1]; Grade 2-4 Max Post): 12% | Creatinine Increased ([1]; Grade 2-4 Max Post): 4% | Gamma Glutamyl Transferase Increased ([1]; Grade 2-4 Max Post): 21% | Hemoglobin Decreased ([1]; Grade 2-4 Max Post): 11% | Lymphocytes Decreased ([1]; Grade 2-4 Max Post): 29% | Neutrophil Count Decreased ([1]; Grade 2-4 Max Post): 8% | Phosphate Decreased ([1]; Grade 2-4 Max Post): 28% | Platelets Decreased ([1]; Grade 2-4 Max Post): 10% | Potassium Increased ([1]; Grade 2-4 Max Post): 7% | Alanine Aminotransferase Increased ([1]; Grade 3-4 Max Post): 2% | Alkaline Phosphatase Increased ([1]; Grade 3-4 Max Post): 0% | Calcium Decreased ([1]; Grade 3-4 Max Post): 1% | Creatinine Increased ([1]; Grade 3-4 Max Post): 0% | Gamma Glutamyl Transferase Increased ([1]; Grade 3-4 Max Post): 11% | Hemoglobin Decreased ([1]; Grade 3-4 Max Post): 1% | Lymphocytes Decreased ([1]; Grade 3-4 Max Post): 13% | Neutrophil Count Decreased ([1]; Grade 3-4 Max Post): 4% | Phosphate Decreased ([1]; Grade 3-4 Max Post): 7% | Platelets Decreased ([1]; Grade 3-4 Max Post): 5% | Potassium Increased ([1]; Grade 3-4 Max Post): 1% | Abdominal pain, All Grades ([1]; N=83): 22% | Abdominal pain, Grades 3-4 ([1]; N=83): 1% | Arthralgia, All Grades ([1]; N=83): 15% | Arthralgia, Grades 3-4 ([1]; N=83): 2% | Asthenia, All Grades ([1]; N=83): 46% | Asthenia, Grades 3-4 ([1]; N=83): 4% | Bacterial infection, All Grades ([1]; N=83): 16% | Bacterial infection, Grades 3-4 ([1]; N=83): 4% | Cough, All Grades ([1]; N=83): 30% | Cough, Grades 3-4 ([1]; N=83): 0% | Decreased appetite, All Grades ([1]; N=83): 17% | Decreased appetite, Grades 3-4 ([1]; N=83): 1% | Diarrhea, All Grades ([1]; N=83): 35% | Diarrhea, Grades 3-4 ([1]; N=83): 5% | Dysphagia, All Grades ([1]; N=83): 16% | Dysphagia, Grades 3-4 ([1]; N=83): 0% | Dyspnea, All Grades ([1]; N=83): 33% | Dyspnea, Grades 3-4 ([1]; N=83): 5% | Edema, All Grades ([1]; N=83): 27% | Edema, Grades 3-4 ([1]; N=83): 1% | Headache, All Grades ([1]; N=83): 21% | Headache, Grades 3-4 ([1]; N=83): 0% | Hemorrhage, All Grades ([1]; N=83): 23% | Hemorrhage, Grades 3-4 ([1]; N=83): 5% | Hypertension, All Grades ([1]; N=83): 21% | Hypertension, Grades 3-4 ([1]; N=83): 7% | Infection (pathogen not specified), All Grades ([1]; N=83): 53% | Infection (pathogen not specified), Grades 3-4 ([1]; N=83): 16% | Muscle spasm, All Grades ([1]; N=83): 17% | Muscle spasm, Grades 3-4 ([1]; N=83): 0% | Musculoskeletal pain, All Grades ([1]; N=83): 22% | Musculoskeletal pain, Grades 3-4 ([1]; N=83): 4% | Nausea (includes vomiting), All Grades ([1]; N=83): 42% | Nausea (includes vomiting), Grades 3-4 ([1]; N=83): 4% | Pruritus, All Grades ([1]; N=83): 11% | Pruritus, Grades 3-4 ([1]; N=83): 0% | Pyrexia, All Grades ([1]; N=83): 18% | Pyrexia, Grades 3-4 ([1]; N=83): 1% | Rash, All Grades ([1]; N=83): 12% | Rash, Grades 3-4 ([1]; N=83): 0% | Viral infection, All Grades ([1]; N=83): 19% | Viral infection, Grades 3-4 ([1]; N=83): 4% | adverse reactions leading to dose interruption ([1]; N=83): 29% | dose interruption due to asthenia, dyspnea, hemorrhage, hypotension, liver function test abnormal, nausea, pyrexia, edema, renal failure (each) ([1]; N=83): 2% | dose interruption due to diarrhea ([1]; N=83): 4% | dose interruption due to infections ([1]; N=83): 11% | permanent discontinuation due to adverse reactions ([1]; N=83): 18% | permanent discontinuation due to nausea ([1]; N=83): 4%
